We go through 99 compounds from ChEMBL document CHEMBL3507680, “University of Dundee, Gates Library screen for HepG2 cell viability”.

A short description of this series: Human HepG2 cell viability assay in 384 well format. To be noted: HepG2 cells, read-out: Inhibition. In kind it is toxicity, cell-based. The arrangement: dose 125 nL, time 70.5 hour; concentration not given beside the values.
On to `CCOC(CC)C(=O)NCCC(=O)N1CCN(c2ccccn2)CC1` (centres undefined), for which the cytotoxicity at 70.5 h was -14.2%. Next, `Fc1ccc(CN2CCCn3nnc(COCC4CC4)c3C2)cc1`: 16.6%; `COc1cc(C(F)(F)F)sc1C(=O)O`: -6.37%.

As to `CN(CCC(O)c1ccccc1)c1cc(C2CC2)ncn1` (centres undefined), the cytotoxicity at 70.5 h was -6.59%. Next, `CC(C)c1cc(CN(C)C(=O)C(C)N2CCc3ccccc3C2)no1` (centres undefined): 34.4%. The result for `COc1nccnc1N1C[C@@H]2CC[C@H](C1)N(CC=C(C)C)C2=O` reads -20.8%. The result for `Cc1ccccc1CN1C[C@@H]2OCC(=O)N(CC(N)=O)[C@@H]2C1` reads -0.694%; that for `O=C([C@@H]1CC[C@@H]2[C@@H](CCN2c2ccncn2)O1)N1CCCCO1`, -0.768%. `CC(C)N(C)Cc1nnc2n1CCCN(C(=O)c1ccco1)C2`: the cytotoxicity at 70.5 h was -6.16%. Turning to `COCC(c1cccc(C(F)(F)F)c1)N(C)C(=O)c1ccncc1` (centres undefined), the cytotoxicity at 70.5 h was found to be 30.8%. As for `CC(Sc1nnnn1C1CCOCC1)C(F)(F)F` (centres undefined), the cytotoxicity at 70.5 h is -7.71%.

As for `CCCN(Cc1nc(-c2ccc(F)c(OC)c2)oc1C)CC1CCCO1` (centres undefined), the cytotoxicity at 70.5 h is -5.99%.

On to `N#Cc1ccccc1OCCN1CCn2c(nnc2C2CC2)C1`, for which the cytotoxicity at 70.5 h was 5.39%. Next, `O=C(CSCC1CC1)N1CCCN(c2ccc(F)cc2)CC1`: -7.69%; `CC(C)c1ccc(S(=O)(=O)N2CSCC2C(=O)NCC(F)(F)F)cc1` (centres undefined): -7.38%; `COc1cncc(N2CCN(Cc3cccn3C)CC2)n1`: 3.9%. The result for `COC(=O)CNC(=O)C1(N(C)Cc2ccccc2)Cc2ccccc2C1` reads -8.63%; that for `c1csc(CN2CCn3c(Cn4cncn4)cnc3C2)c1`, 27.5%; that for `O=C(CCc1ccccc1)N1CCN(C(=O)c2ccc[nH]2)CC1`, -12.3%.

For `COCCN(c1cc(C)nc2nc(C(F)(F)F)nn12)C1CCCC1`, the cytotoxicity at 70.5 h came to 12.8%.

Take `CC1CN(C(=O)CN(Cc2ccco2)Cc2cccs2)CCO1` (centres undefined): the cytotoxicity at 70.5 h amounted to 3%. With `O=C1C(CS(=O)(=O)Nc2ccc(Cl)cc2)=NC(=O)n2cccc21`, the cytotoxicity at 70.5 h is -26.2%.

As for `CC1Cc2ccccc2N1Cc1occc1C(=O)OCC(N)=O` (centres undefined), the cytotoxicity at 70.5 h was determined as 2.01%. Next, `Cc1oc(-c2ccco2)nc1CC(=O)NCC(C)(C)N(C)C`: -8.24%.

For the compound `CC(C)OCCNC(=O)C1CCC(=O)N(C2CCCC2)C1` (centres undefined), the cytotoxicity at 70.5 h is -4.22%.

For `CCc1nc(Nc2ccc(C(=O)NC)cc2)c2c(n1)c(C)nn2CC`, the cytotoxicity at 70.5 h was -16.9%. For the compound `COCCN1C[C@H]2[C@@H](C1)N(C(=O)COc1ccccc1)CC[C@H]2OC`, the cytotoxicity at 70.5 h is -11.3%. As for `CC[C@H]1N(CC2CCOCC2)CCC[C@]12CCC(=O)N2`, the cytotoxicity at 70.5 h was -3.56%.

As for `CC(C)(CN)NS(=O)(=O)c1cccc(F)c1F`, the cytotoxicity at 70.5 h was determined as 9.16%.

For the compound `CS(=O)(=O)c1nnc(NC(=O)CCc2ccc(Cl)s2)[nH]1`, the cytotoxicity at 70.5 h is -10.2%. On to `CC(C)c1cc(=O)[nH]c(-n2nc(C3CC3)cc2N)n1`, for which the cytotoxicity at 70.5 h worked out at 58.1%. Regarding `COCc1cc(N2CCN(c3ccc(Cl)cn3)CC2)n2nccc2n1`, the cytotoxicity at 70.5 h is -0.783%. With `CNC(=O)NC(=O)CN1CCCN(CC(F)(F)F)CC1`, the cytotoxicity at 70.5 h was -7.82%. In the case of `CC(=O)NCCc1ccc(S(=O)(=O)N(C)C(C)C(C)(C)C)s1` (centres undefined), the cytotoxicity at 70.5 h is -9.01%. Next, `CC(=O)N1CCN(C(=O)CNc2ccc3ncsc3c2)CC1`: -5.1%; `Cc1nn(C)cc1C1CC(=O)Nc2c1cnn2C` (centres undefined): -5.3%; `Cn1c(C(F)(F)F)nn(CCNC(=O)Nc2ccccc2F)c1=O`: -7.97%. Next, `CC(C)c1nc2n(n1)CC(NCc1ncc(-c3ccccc3)o1)CC2` (centres undefined): -6.07%; `COc1cccc(NC(=O)NCC(C)(O)CCSC)c1OC` (centres undefined): -8.28%.

For `COc1ccc(-n2cc(CNC(=O)c3cc[nH]n3)nn2)cc1`, the cytotoxicity at 70.5 h was -3.5%.

In the case of `CC(C)c1nc(CN(C)C2CCN(Cc3nnc(C4CC4)o3)C2)no1` (centres undefined), the cytotoxicity at 70.5 h was 1.8%. Next, `CN(Cc1cccnc1)C[C@H]1CC[C@@H](Cc2ccc3c(cnn3C)c2)O1`: -10.4%.

`CCOc1ccc(Cl)c(C(=O)NC)n1`: the cytotoxicity at 70.5 h was 0.647%. In the case of `CCOc1ccnc(N2CCN(C(=O)c3cn[nH]c3CC)CC2)n1`, the cytotoxicity at 70.5 h was -3.19%. On to `CNC(=O)c1c(C)cccc1NCc1noc(C2CC2)n1`, for which the cytotoxicity at 70.5 h is -2.54%. Next, `O=C(Cn1cc(Cl)cn1)N1CCNC1=O`: 48.7%. The result for `CC(=O)N1CCCC1c1cccc(C)c1C` (centres undefined) reads -4.04%. Next, `CCc1nn(C)c(Cl)c1CN1CCN(c2nc(C(N)=O)cs2)CC1`: -3.53%; `CCc1nc(C2CCCN2C(=O)c2c[nH]c(C)n2)no1` (centres undefined): 27.8%. For `CO[C@H]1COCCN(C(=O)c2ccno2)C1`, the cytotoxicity at 70.5 h is -1.71%. The result for `CCn1nc2c(cc1=O)CN(Cc1nc(-c3ccccn3)no1)CC2` reads -1.12%.

Regarding `CC(C)c1nnc(N2C[C@@H](CN(C)CCO)[C@@H](CO)C2)s1`, the cytotoxicity at 70.5 h is 12.7%.

As for `Cc1ccc(C(=O)NCC2CCCCO2)c(=O)[nH]1` (centres undefined), the cytotoxicity at 70.5 h was -3.97%. Next, `OCCNc1nccc(-c2cn3nccc3nc2C2CCCCC2)n1`: -8.52%; `COc1ccc(COCC(O)CNC(=O)c2ccncc2)cc1` (centres undefined): -1.56%.

In the case of `O=C(c1ccncc1)N1C[C@@H]2CCN(c3cccnc3)C[C@@H]2C1`, the cytotoxicity at 70.5 h is -16.9%. Turning to `CC(NC(=O)Nc1nccs1)c1cccnc1` (centres undefined), the cytotoxicity at 70.5 h was -2.43%.

Turning to `Cc1noc([C@]23COC[C@H]2CN(C(C)C)C3)n1`, the cytotoxicity at 70.5 h stood at 1.38%. Take `O=C(CCCn1cccn1)N1CCCC(n2cncn2)C1` (centres undefined): the cytotoxicity at 70.5 h was 1.52%. The result for `Cc1cc(CC(=O)NCC(O)COc2ccc(F)c(F)c2)n[nH]1` (centres undefined) reads 17.8%; that for `N#Cc1ccc(N2CCC3(CCC(=O)N3Cc3cccnc3)CC2)nc1`, -5.74%. For `O=C(O)c1ccc(S(=O)(=O)Nc2ccc(Cl)c(F)c2)c(F)c1`, the cytotoxicity at 70.5 h was -5.1%. On to `CSc1ccc(CN2CCC(CCC(=O)Nc3ccccc3)CC2)cc1`, for which the cytotoxicity at 70.5 h was found to be 8.45%.

As for `CCc1nc(CN2CCCN(C(=O)CCc3ccco3)CC2)cs1`, the cytotoxicity at 70.5 h came to 27.3%.

With `CCOCC1CC2(CCN(C(=O)CC3=CCCCC3)CC2)CO1` (centres undefined), the cytotoxicity at 70.5 h was found to be 1.88%. The result for `Cc1nc(N2CCCN(C(=O)c3ccsc3)CC2)c2cnn(C)c2n1` reads -2.94%. Regarding `Cc1cc(N2CCC(NC(C)Cc3ccsc3)CC2)nc(N)n1` (centres undefined), the cytotoxicity at 70.5 h worked out at 32.9%. For `Cc1cc(-c2nn(C)c(Cl)c2CN2CCOCC(O)C2)no1` (centres undefined), the cytotoxicity at 70.5 h was -11.6%. Next, `CCOc1cccc(CNCc2ccc(NC(=O)NC(C)C)cc2)c1`: 4.86%; `COCCN1CCC2(CCCN(C(=O)c3cncn3C)C2)CC1`: -3.6%.

Regarding `Cc1ccc(CN2C[C@H]3CN(CC4CCN(C)CC4)C(=O)[C@H]3C2)s1`, the cytotoxicity at 70.5 h was -12.7%. The result for `Cc1nn(C)c(C)c1C(=O)N1CCN(C(=O)CC2CCCCC2)CC1` reads 11.5%; that for `Cc1nc(C2CCCN2C(=O)Cc2ccc(F)cc2)ncc1C(N)=O` (centres undefined), -8.28%. The result for `O=C(NCc1ccco1)[C@@H]1CCO[C@@H]2CCN(c3ncccn3)C[C@@H]21` reads 9.24%; that for `O=C(CCc1ccccc1F)NC1CCCN(c2ccccn2)C1` (centres undefined), -5.74%; that for `O=S(=O)(c1ccc(F)cc1Cl)N1CCCC1c1ccncc1` (centres undefined), -6.79%. As to `O=C(Cc1ccc(CO)cc1)N1CCN(CC2CC2)[C@@H]2CS(=O)(=O)C[C@@H]21`, the cytotoxicity at 70.5 h came out at 2.89%.

For `O=C(CNC(=O)c1ccc(Cl)cc1)Nc1nccs1`, the cytotoxicity at 70.5 h was 20.2%. Take `O=C1CSC(c2cccnc2)c2c(n(C3CCOCC3)[nH]c2=O)N1` (centres undefined): the cytotoxicity at 70.5 h was -24.2%. Regarding `O=C(NCCSC1CCCC1)c1c(F)cccc1F`, the cytotoxicity at 70.5 h was -6.07%. Next, `Cc1csc2c(C3CCN(CCOc4ccccc4F)CC3)nc(C)n12`: 18.2%; `Cc1cccc(CN2C[C@@H]3CN(C(=O)c4ccco4)C[C@@H]3C2=O)c1`: -1.41%; `COc1cc(C(=O)N(C)Cc2cc(C(=O)O)c(C)o2)cc(OC)c1OC`: -7.77%.

For the compound `Cc1cncc(C(=O)N2C[C@H]3CCC[C@@]3(COc3ccccn3)C2)c1`, the cytotoxicity at 70.5 h is 7.93%. The result for `Cc1ccc(C(N)c2cccc(S(C)(=O)=O)c2)c(C)c1` (centres undefined) reads -7.42%; that for `Cc1nccn1CCCN1CCC2(CCC(=O)N(CC3CC3)C2)CC1`, -7.09%. The result for `CCn1cnc2c(c(Br)nn2C)c1=O` reads -17.1%; that for `Cc1ccn(CCC(=O)NC(C)Cc2ccco2)n1` (centres undefined), -6.56%. Next, `Cc1ccc(CNC(=O)CCN2CCN(c3ccccn3)CC2)n1C`: 21.9%; `Cc1oc(-c2nc(C#N)c(NC(C)C)o2)cc1S(=O)(=O)N1CCCCC1`: -21.8%; `CS(=O)(=O)NC[C@]1(O)CCN(C(=O)Cc2cccs2)C[C@H]1O`: 12.2%. For `CC1c2cccn2CCN1C(=O)CCc1nc(C2CC2)no1` (centres undefined), the cytotoxicity at 70.5 h was -8.57%. Take `Cc1nn(C)c(Cl)c1C1CCCN1C(=O)c1cnccn1` (centres undefined): the cytotoxicity at 70.5 h was -7.92%.

For `Cc1cc2c(=O)n3c(nc2s1)CCN(Cc1cnc(C(C)C)nc1)CC3`, the cytotoxicity at 70.5 h is -14.8%. For `CN(C)c1ccc(C(=O)NCCCNc2ccc(C(F)(F)F)cn2)cc1`, the cytotoxicity at 70.5 h was -13%.

For the compound `CNC(=O)COC(=O)c1cccc(-n2ccc(C(F)(F)F)n2)c1`, the cytotoxicity at 70.5 h was 0.44%.

`COCC1c2c(cnn2CC2CC2)CCN1Cc1cccs1` (centres undefined): the cytotoxicity at 70.5 h is -2.83%. Consider `O=S(=O)(c1ccccc1)N1CCCC(Cn2cncn2)C1` (centres undefined), for which the cytotoxicity at 70.5 h was -4.76%. As for `Cc1ccn2ncc(C(=O)N3CCCC(n4nc(C)nc4C)C3)c2n1` (centres undefined), the cytotoxicity at 70.5 h is -5.04%.
